Columns and labels:
souris [1] = assay: Interaction with reserpine; type: in vivo; conditions: 32 mg/kg, 64 mg/kg et 128 mg/kg i.p.
souris [2] = assay: Motility reduced by habituation to the enclosure; type: in vivo; conditions: dès 8 mg/kg et surtout à 32 mg/kg et 128 mg/kg i.p.
Method in brief: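 Male mice (6 per dose, 12 controls) habituated 18 h in actimeters got compound i.p. as aqueous gum arabic suspension, 20 ml/kg. Returned to enclosures immediately; motility recorded for 30 min starting 30 min post-dose.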

souris [3] = assay: Motility reduced by hypoxic aggression (acute hypobaric anoxia); type: in vivo; conditions: 32 mg/kg, mais surtout 128 mg/kg i.p.
Method in brief: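 Male mice (10 per dose, 20 controls) got compound i.p. as an aqueous gum arabic suspension (20 ml/kg). Thirty minutes later they underwent acute hypobaric anoxia: 600 mm Hg depression over 90 s, then 45 s release. Motility was then recorded in an actimeter for 10 min.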

souris [4] = assay: Interaction with oxotremorine; type: in vivo
Method in brief: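 Groups of 6 male mice received test compound i.p. as a suspension in aqueous gum arabic (20 ml/kg).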

souris [5] = assay: Intergroup aggressiveness; type: in vivo; conditions: dose not stated
Method in brief: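 Male mice, housed in groups of 3 on either side of an opaque partition for 3 weeks, received compound i.p. as a gum arabic suspension at 20 ml/kg. After 30 min the partition was removed, and fights were counted over 10 min.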

homme = assay: Clinical trials; type: in vivo
From the text: Les études cliniques ont porté sur les troubles de la vigilance, de l'éveil et des états confusionnels, d'une part, et sur les troubles de l'affectivité, du contact et des dépressions, d'autre part.

rats = assay: Interaction with amphetamine (stereotypies); type: in vivo; conditions: rat, 64 mg/kg i.p.
Method in brief: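 Male rats, groups of 6, given test compound i.p. as aqueous gum arabic suspension; amphetamine 2 mg/kg i.p. injected 30 min later and stereotypies scored.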

souris [6] = assay: Four plates test; type: in vivo; conditions: 0,5 h after administration, dose not stated
SNC = assay: Essential activity on the CNS (Tableau I and conclusions of the neuropsychopharmacological study); type: in vivo; conditions: in vivo
From the text: Dans le tableau I ci-après, on a consigné un certain nombre de composés selon la formule I de façon nullement limitative, en mentionnant l'activité essentielle sur le SNC.
Les composés de formule I agissent tous sur le SNC. Les produits des exemples 1-3 et 7-8 sont des agents stimulants, en revanche les produits des exemples 4-6 sont des agents sédatifs.

souris groupées = assay: Toxicity in grouped mice; conditions: in vivo
souris [7] = assay: Spontaneous motility (actimeter); type: in vivo; conditions: 8 mg/kg, 32 mg/kg et 128 mg/kg i.p.
Method in brief: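 Male mice dosed i.p. as a suspension in aqueous gum arabic (20 ml/kg); 30 min later they are placed in an actimeter and motility is recorded for 30 min, 6 mice per dose, 12 controls.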

souris mâle [8] = assay: Toxicity, DL-0; type: in vivo; conditions: i.p.
Method in brief: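 Male mice dosed intraperitoneally with compound suspended in aqueous gum arabic at 20 ml/kg. Value is DL-0, the minimal non-lethal dose.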

souris [9] = assay: Electroshock; type: in vivo; conditions: dose not stated
rat = assay: Interaction with apomorphine, rat; type: in vivo; conditions: 64 mg/kg i.p.
Method in brief: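 Groups of 6 male rats received test compound intraperitoneally as a suspension in aqueous gum arabic (5 ml/kg).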

rats mâles = assay: Global behaviour and reactivities, rat; type: in vivo
souris [10] = assay: Behavioural despair (forced immersion); type: in vivo; conditions: 8 mg/kg, 32 mg/kg et 128 mg/kg i.p.
Method in brief: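 Male mice were dosed i.p. with compound suspended in aqueous gum arabic at 20 ml/kg, 10 per dose. Thirty minutes later each mouse was put in a confined space holding 6 cm of water, and immobility time was scored from minute 2 to minute 6.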

souris mâle [11] = assay: Pentobarbital-induced sleep duration; type: in vivo; conditions: dose 32 mg/kg i.p., 0,5 h before pentobarbital
From the text: Les composés selon l'invention se distinguent du benzhydrylsulfinylacétamide (CRL 40476) précité par une différence d'action vis-à-vis du sommeil barbiturique. […]. Cette différence d'action qui est intéressante sur le plan thérapeutique est illustrée par le tableau IV

souris [12] = assay: Asphyxic anoxia (gallamine triethiodide); type: in vivo; conditions: dose not stated
Method in brief: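 Male mice, 10 per dose, given compound i.p. as suspension in aqueous gum arabic (20 ml/kg). Gallamine triethiodide 32 mg/kg i.p. injected 30 min after compound.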

souris mâles = assay: Global behaviour and reactivities, mouse; type: in vivo
souris [13] = assay: Interaction with barbital (sleep); type: in vivo; conditions: 32 mg/kg et 128 mg/kg i.p.
Method in brief: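 Male mice (groups of 10) dosed intraperitoneally with compound suspended in aqueous gum arabic (20 ml/kg); barbital 220 mg/kg i.p. given half an hour later.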

souris [14] = assay: Interaction with apomorphine, mouse; type: in vivo
Method in brief: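 Male mice, 6 per dose, received the test compound intraperitoneally as an aqueous gum arabic suspension (20 ml/kg).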

souris [15] = assay: Traction test; type: in vivo; conditions: 0,5 h after administration, dose not stated

NC(=O)C[S+]([O-])C(c1ccc(F)cc1)c1ccc(F)cc1 (centres unmarked) [Exemple 8, 4,4'-difluorobenzhydrylsulfinylacétamide]
hypothermie réserpinique (souris [1]): antagonise tardivement | ptôsis réserpinique (souris [1]; à 24 h): antagonise également mais de façon modérée | activité motrice chez la souris habituée à son enceinte (souris [2]): reprise d'activité motrice très nette | récupération motrice après séjour bref dans une enceinte à pression réduite (souris [3]): amélioration significative | hypothermie induite par l'oxotrémorine (souris [4]; 2 mg/kg, 8 mg/kg, 32 mg/kg et 128 mg/kg i.p.): antagonise modérément et tardivement | signes de stimulation cholinergique périphérique dus à l'oxotrémorine (souris [4]; dose not stated): ne modifie pas | tremblements induits par l'oxotrémorine (souris [4]; dose not stated): ne sont pratiquement pas modifiés | agressivité intergroupes (nombre de combats) (souris [5]): n'a pas d'effet antiagressif | action contre l'énurésie (homme): agissent efficacement | résultats en tant que médicaments de l'éveil (homme; notamment vieillard, gélules ou comprimés de 100 à 200 mg, 1 à 3 par jour): excellents résultats | stéréotypies amphétaminiques (rats): potentialisation | nombre de passages punis (souris [6]): n'entraîne pas d'augmentation | Activité sur le SNC (SNC): stimulant | conclusion of the neuropsychopharmacological study: main type of CNS effect (SNC): composante excitante | toxicité particulière chez les souris groupées (souris groupées): absence de toxicité particulière | motilité spontanée (souris [7]): augmentation nette | DL-O (souris mâle [8]): supérieure à 256 mg/kg | effets convulsivants de l'électrochoc (souris [9]): ne modifie pratiquement pas | stéréotypies induites par l'apomorphine (rat): augmente | Observations (comportement global et réactivités) (rats mâles; 16 mg/kg i.p.): excitation - réactivité au toucher pendant 2 h | Observations (comportement global et réactivités) (rats mâles; 64 mg/kg i.p.): excitation - réactivité au toucher - fréquence respiratoire augmentée pendant 24 h | durée d'immobilité de la souris placée en immersion forcée (souris [10]): diminue nettement | Action sur la durée du sommeil induit par le pentobarbital (50 mg/kg i.p.) effet (souris mâle [11]): (a) | délai d'apparition des convulsions et de la mort consécutives à une anoxie asphyxique (souris [12]): ne modifie pas | signes de stimulation sympathique périphérique (souris mâles; souris): absence | Observations (comportement global et réactivités) (souris mâles; souris, 2 mg/kg i.p.): réactivité au toucher pendant 2 h | Observations (comportement global et réactivités) (souris mâles; souris, 8 mg/kg i.p.): éxcitation tardive débutant 2 h après administration - réactivité au toucher pendant 2 h | Observations (comportement global et réactivités) (souris mâles; souris, 512 mg/kg i.p.): démarche titubante pendant 0,75 h, - convulsions (66% des animaux) pendant 0,75 h | mortalité (souris mâles; souris, 512 mg/kg i.p.): 4 animaux sur 6 en 1 h, puis 2 animaux sur 6 en 24 h | convulsions (souris mâles; souris, 512 mg/kg i.p., pendant 0,75 h): 66 % des animaux | Observations (comportement global et réactivités) (souris mâles; souris, 32 mg/kg i.p.): excitation tardive débutant 1 h après administration et durant 2 h - stéréotypies 3 h après administration - réactivité au toucher pendant 24 h | Observations (comportement global et réactivités) (souris mâles; souris, 128 mg/kg i.p.): excitation avec stéréotypies pen-dant 3 h - augmentation de la réactivité au toucher pendant 24 h - hypothermie (-1,3°C) pendant 3 h | hypothermie (souris mâles; souris, 128 mg/kg i.p.): -1,3 °C | Observations (comportement global et réactivités) (souris mâles; souris, 256 mg/kg i.p.): excitation débutant 0,5 h après adminis-tration - stéréotypies | mortalité (souris mâles; souris, 256 mg/kg i.p.): pas de mortalité | résorption (souris mâles; supposed from the late onset of several effects and the kinetic study of stereotypies): résorption lente | durée du sommeil barbiturique (souris [13]): diminue nettement | own effect on temperature (souris [14]; 32 mg/kg et 128 mg/kg i.p.): hypothermisant | hypothermie induite par l'apomorphine (souris [14]; 32 mg/kg et 128 mg/kg i.p., apomorphine 1 et 16 mg/kg): aggrave | comportement de verticalisation et stéréotypies (apomorphine) (souris [14]; dose not stated): ne modifie pas | déficit moteur (traction) (souris [15]): ne provoque pas d'incapacité motrice majeure

Reference: patent EP0097071A1, “Benzhydryl sulfinylacetamide derivatives and their therapeutical use” (LABORATOIRE L. LAFON Société anonyme dite:, priority 1982, dated 1983)
